Laboratory results reported in publication PMC7367873, “Dissecting the sequence determinants for dephosphorylation by the catalytic subunits of phosphatases PP1 and PP2A” (Nature Communications, 2020).
Each block holds one substance with its values, some of them ahead of it.

What was measured:
[1] = tested on: GFP-14-3-3β and its binding proteins; test: GFP-14-3-3β co-IP with LC-MS/MS label-free quantification, untreated versus PP1c-treated; parameters: species or system human
Method: (§1) HeLa Kyoto cells expressing transiently transfected pEGFP(C1)-14-3-3β or pEGFP(C1) control plasmid, were incubated with 20 nM Calyculin A (# 9902 S, Cell Signaling Technology) for 12 min. Cells were washed twice on ice with cold PBS and after addition of 500 µL lysis buffer (100 mM NaCl, 10 mM Tris, 0.1% IGEPAL, 1 mM EDTA, 1 mM EGTA, 20 nM Calyculin A, 1x cOmplete Mini protease inhibitor cocktail (Sigma), 1 mM DTT, 1 mM MnCl2) cells were scraped from plates, lysed by 10 pushes through an injection needle (21 G, BD) and the insoluble fraction was pelleted by centrifugation (10 min, 10^4 rcf, 4 °C). Supernatants were then subjected to incubation with 1 µM recombinant phosphatase or buffer for 1 h at 30 °C. Next, we subjected samples to immunoprecipitation using α-GFP nanobodies covalently coupled to agarose beads (2 h, 4 °C, obtained from the EMBL PEPcore Core Facility). Beads were then washed three times with lysis buffer and samples were eluted in 1x LDS sample buffer (Thermo Fisher Scientific) by heating to 70 °C for 10 min.
(§2) The samples were then reduced with 25 mM dithiothreitol (10 min at 70 °C) and alkylated with 55 mM chloroacetamide (room temperature, 30 min, in the dark). Proteins were run on a precast 4–12% NuPAGE gel (ThermoFisher Scientific) for about 1 cm to concentrate the sample prior to in-gel tryptic digestion, which was performed according to the standard procedures. The peptides obtained were dried to completeness and resuspended in 12 µL of buffer A (0.1% FA), and 5 µL of sample were injected per MS measurement. The experiment was carried out in three independent replicates.
(§3) The samples were analyzed by LC-MS/MS on a Dionex Ultimate 3000 nano-HPLC coupled online to a Fusion Lumos Tribrid mass spectrometer (Thermo Fisher Scientific). Peptides were delivered to a trap column (75 µm × 2 cm, packed in-house with 5 µm C18 resin; Reprosil PUR AQ, Dr. Maisch) and washed using 0.1% FA at a flow rate of 5 µL/min for 10 min. Subsequently, peptides were transferred to an analytical column (75 µm × 45 cm, packed in-house with 3 µm C18 resin; Reprosil Gold) applying a flow rate of 300 nL/min and separated using a 60 min linear gradient from 4% to 32% LC solvent B (0.1% FA, 5% DMSO in ACN) in LC solvent A (0.1% FA in 5% DMSO). The eluate from the analytical column was sprayed via a stainless steel emitter (Thermo Fisher Scientific) at a source voltage of 2.1 kV into the mass spectrometer. The transfer capillary was heated to 275 °C. The Fusion Lumos was operated in positive ionization mode and data-dependent acquisition (DDA), automatically switching between MS1 and MS2 spectrum acquisition. Full scan MS1 spectra were recorded in the Orbitrap from 360 to 1300 m/z at a resolution of 60k (automatic gain control (AGC) target value of 4e5 charges, maximum injection time (maxIT) of 50 ms). Up to 20 peptide precursors were isolated (isolation window, 1.7 m/z; maximum injection time, 25 ms; and AGC value, 1e5), fragmented by high-energy collision-induced dissociation (HCD) using 30% normalized collision energy (NCE), and analyzed at a resolution of 15k in the Orbitrap. Precursor ions that were singly charged, unassigned, or with charge states >6+ were excluded. The dynamic exclusion duration of fragmented precursor ions was 20 s.
(§4) Peptide and protein identification and LFQ were performed using MaxQuant software (version 1.6.1.0)[64] by searching the data against all canonical protein sequences as annotated in the Swissprot reference database (human proteins only, 20193 entries, downloaded 22 March 2016, internally annotated with PFAM domains) using the embedded search engine Andromeda[65]. The MaxQuant search was performed using two variable modifications; oxidation of methionine and N-terminal protein acetylation. Carbamidomethylation on cysteines was specified as a fixed modification. Trypsin (Trypsin/P) was specified as the proteolytic enzyme with up to two allowed missed cleavage sites.

GFP-14-3-3β = GFP-14-3-3β co-IP with LC-MS/MS, untreated GFP-14-3-3β versus GFP control (14-3-3 interactome); assay type: binding, human
Method: as §1, §2, §3, §4

[2] = PP1 vs untreated, LFQ intensities, 3 replicates each
[3] = untreated vs GFP, LFQ intensities, 3 replicates each
[4] = PP1 vs untreated, label-free quantification
[5] = untreated vs GFP, label-free quantification
[6] = pairwise comparison PP1 vs untreated
[7] = pairwise comparison untreated vs GFP
[8] = PP1 vs untreated, LFQ intensities, replicates 1-3
[9] = untreated vs GFP, LFQ intensities, replicates 1-3
[10] = pairwise comparison PP1 vs untreated, student's t-test, 3 replicates each, LC-MS/MS label-free quantification
[11] = pairwise comparison untreated GFP-14-3-3β vs GFP, student's t-test, 3 replicates each, LC-MS/MS label-free quantification
[12] = GFP-14-3-3β co-IP LC-MS/MS, PP1 vs untreated, student's t-test, label-free quantification, 3 replicates each
[13] = GFP-14-3-3β co-IP LC-MS/MS, untreated vs GFP, student's t-test, label-free quantification, 3 replicates each

Difference (log2), PP1 vs untreated [1, 2]: 0.4338 log2
Substance: ABCF1
Difference (log2), untreated vs GFP (GFP-14-3-3β; [3]): 1.553 log2

Difference (log2), PP1 vs untreated [1, 4]: 1.1943 log2
Substance: CLPX
Difference (log2), untreated vs GFP (GFP-14-3-3β; [5]): 0.9407 log2

Difference (log2), PP1 vs untreated [1, 6]: -0.101 log2
Substance: NAV1
Difference (log2), untreated vs GFP (GFP-14-3-3β; [7]): 1.95 log2

Difference (log2), PP1 vs untreated [1, 8]: -1.493 log2
Substance: LANCL1
Difference (log2), untreated vs GFP (GFP-14-3-3β; [9]): -0.5316 log2

Difference (log2), PP1 vs untreated [1, 2]: 0.4051 log2
Substance: LGALS1
Difference (log2), untreated vs GFP (GFP-14-3-3β; [3]): -0.7235 log2

Difference (log2), PP1 vs untreated [1, 4]: 1.014 log2
Substance: EMD
Difference (log2), untreated vs GFP (GFP-14-3-3β; [5]): -1.504 log2

Difference (log2), PP1 vs untreated ([1]; log2 difference, pairwise comparison PP1 vs untreated, label-free quantification, 3 replicates each): 4.203
Substance: DSP
Difference (log2), untreated vs GFP (GFP-14-3-3β; log2 difference, pairwise comparison untreated vs GFP, label-free quantification, 3 replicates each): -0.252

Difference (log2), PP1 vs untreated [1, 4]: 0.7956 log2
Substance: AGO2
Difference (log2), untreated vs GFP (GFP-14-3-3β; [5]): 0.05278 log2

Difference (log2), PP1 vs untreated [1, 8]: -0.7597 log2
Substance: KHDRBS1
Difference (log2), untreated vs GFP (GFP-14-3-3β; [9]): -0.7979 log2

Difference (log2), PP1 vs untreated [1, 2]: 0.3367 log2
Substance: EEF1G
Difference (log2), untreated vs GFP (GFP-14-3-3β; [3]): -0.3337 log2

Difference (log2), PP1 vs untreated [1, 6]: 0.02924 log2
Substance: STOM
Difference (log2), untreated vs GFP (GFP-14-3-3β; [7]): -0.5691 log2

Difference (log2), PP1 vs untreated [1, 4]: 0.983 log2
Substance: LARP4
Difference (log2), untreated vs GFP (GFP-14-3-3β; [5]): -0.1959 log2

Difference (log2), PP1 vs untreated [1, 8]: -1.109 log2
Substance: NUP210
Difference (log2), untreated vs GFP (GFP-14-3-3β; [9]): 2.632 log2

Difference (log2), PP1 vs untreated [1, 10]: -3.602 log2
Substance: WDR62
Difference (log2), untreated vs GFP (GFP-14-3-3β; [11]): 4.129 log2

Difference (log2), PP1 vs untreated [1, 8]: -1.61 log2
Substance: SPTBN1
Difference (log2), untreated vs GFP (GFP-14-3-3β; [9]): 0.3641 log2

Difference (log2), PP1 vs untreated [1, 6]: -0.1402 log2
Substance: DNAJA1
Difference (log2), untreated vs GFP (GFP-14-3-3β; [7]): -0.4796 log2

Difference (log2), PP1 vs untreated [1, 12]: -0.4869 log2
Substance: PNN
Difference (log2), untreated vs GFP (GFP-14-3-3β; [13]): 2.978 log2

Difference (log2), PP1 vs untreated [1, 8]: -1.253 log2
Substance: BRAF
Difference (log2), untreated vs GFP (GFP-14-3-3β; [9]): 7.361 log2

Difference (log2), PP1 vs untreated [1, 2]: 0.5371 log2
Substance: TECR
Difference (log2), untreated vs GFP (GFP-14-3-3β; [3]): -0.1984 log2

Difference (log2), PP1 vs untreated [1, 12]: -0.2648 log2
Substance: CLTC
Difference (log2), untreated vs GFP (GFP-14-3-3β; [13]): 0.0549 log2

Difference (log2), PP1 vs untreated [1, 12]: -0.7054 log2
Substance: CLASP1
Difference (log2), untreated vs GFP (GFP-14-3-3β; [13]): 1.4296 log2

Difference (log2), PP1 vs untreated [1, 6]: 0.07826 log2
Substance: PRKDC
Difference (log2), untreated vs GFP (GFP-14-3-3β; [7]): -0.4154 log2

Difference (log2), PP1 vs untreated [1, 6]: -0.03751 log2
Substance: DTX3L
Difference (log2), untreated vs GFP (GFP-14-3-3β; [7]): 0.3421 log2

Difference (log2), PP1 vs untreated [1, 10]: -4.747 log2
Substance: FRYL
Difference (log2), untreated vs GFP (GFP-14-3-3β; [11]): 5.1751 log2

Difference (log2), PP1 vs untreated [1, 8]: -0.8848 log2
Substance: YES1
Difference (log2), untreated vs GFP (GFP-14-3-3β; [9]): -0.5463 log2

Difference (log2), PP1 vs untreated [1, 6]: 0.07589 log2
Substance: TUBA1B
Difference (log2), untreated vs GFP (GFP-14-3-3β; [7]): -0.8319 log2

Difference (log2), PP1 vs untreated [1, 6]: -0.1289 log2
Substance: XRCC6
Difference (log2), untreated vs GFP (GFP-14-3-3β; [7]): -0.01757 log2

Difference (log2), PP1 vs untreated [1, 4]: 1.157 log2
Substance: IMPDH2
Difference (log2), untreated vs GFP (GFP-14-3-3β; [5]): -1.172 log2

Difference (log2), PP1 vs untreated [1, 6]: -0.07574 log2
Substance: ILF2
Difference (log2), untreated vs GFP (GFP-14-3-3β; [7]): 3.657 log2

Difference (log2), PP1 vs untreated [1, 10]: -2.033 log2
Substance: SPTAN1
Difference (log2), untreated vs GFP (GFP-14-3-3β; [11]): 0.5148 log2

Difference (log2), PP1 vs untreated [1, 2]: 0.5786 log2
Substance: TFAM
Difference (log2), untreated vs GFP (GFP-14-3-3β; [3]): -2.855 log2

Difference (log2), PP1 vs untreated [1, 10]: -3.139 log2
Substance: RACGAP1
Difference (log2), untreated vs GFP (GFP-14-3-3β; [11]): 6.129 log2

Difference (log2), PP1 vs untreated [1, 12]: -0.6623 log2
Substance: TOP2A
Difference (log2), untreated vs GFP (GFP-14-3-3β; [13]): 3 log2

Difference (log2), PP1 vs untreated [1, 12]: -0.3502 log2
Substance: KARS
Difference (log2), untreated vs GFP (GFP-14-3-3β; [13]): -0.1156 log2
